Four compounds from patent publication US20080311657A1, “Killing Human Lymphoma and Leukemia Cancer Cells and Tcr-Activated Normal Human Cells By Dopamine D1r Agonists” (priority 2005, published 2008) can be followed below.

Format in all cases: cell-based
The subject of series [1] is Human chronic myelogenous leukemia cells (CML) (K-562). Put plainly: Number of living cells counted by flow cytometry (FACSort) after D1R agonist. The settings on record: for No. of Cells: 1 × 10^−4M; for No. of Cells / Killing, in words (Table 6): 1 hour; for Killing, in words (Table 6): 10^−4 M. As to the method:
(§1) Human chronic myelogenous leukemia cells (CML) (K-562) were seeded in 96 well plates (0.5 ml per well of 0.5 million cells/ml) and A 77636 hydrochloride was added and diluted 1:00 into the wells at starting concentrations of 10^−1M-10^−4M, so that the final concentration range tested was 10^−3M-10^−6M. Afterwards, the microtiter plates were placed in an incubator (37° C., humidified incubator, 5% CO2) for 3 days. Then, the number of living cells was evaluated by flow cytometry (the cells were counted by FACsort for a fixed time length of 1 min, in which 100 microliter of each sample was tested).
as §1, with “68930” for “77636”
as §1, with “SKF 38393 hydrobromide” for “A 77636 hydrochloride”
(§2) Human chronic myelogenous leukemia cells (CML) (K-562) were seeded in 96 well plates (0.5 ml per well of 0.5 million cells/ml) and A 77636 hydrochloride was added and diluted 1:00 into the wells, at a fixed starting concentration of 10^−2M, so that the final concentration tested was 10^−4M. The experiment was designed to test the effect of exposing the cells to the D1R agonist for 1 min, 15 min, 1 hr or 72 hr. Thus, 1 min, or 15 min or 1 hr after the addition of the D1R agonist, the corresponding cells were transferred into tubes, centrifuged (1000 rpm for 10 min), and the supernatant was removed. […] Thus, its medium was not replaced, and these cells and remained as such in the incubator for 72 hr. At the end of the 72 hr incubation, the number of living cells was evaluated by flow cytometry (the cells were counted by FACsort for a fixed time length of 1 min, in which 100 microliter of each sample was tested).
(§3) Cell viability was tested afterwards.
(§4) For this purpose, the Jurkat T-cell leukemia line, the HuT-78 human T-lymphoma (cutaneous “Sezary” T-lymphoma) line, and the K-562 human Chronic-Myeloid Leukemia (CML) and Daudi Human B-lymphoma (Burkitt's lymphoma) lines were seeded in tissue culture wells (0.5 million cells/0.5 ml/well).
(§5) Cell survival/death was evaluated 3 days later by counting the number of living cells, using flow cytometry.
(§6) The effect of dopamine itself (that can of course activate all its D1R-5 receptors) was also tested. All of these molecules were tested at a similar concentration (10^−4 M). […] The specificity and restriction of the effect to the D1R is also seen in Tables 7 and 8.
(A flow cytometer gives signals particle by particle.)

In series [2] the test system is Human Burkitt's B-lymphoma cells (Daudi). The description is as above. The note with it: for No. of Cells: 1 × 10^−4M; for No. of Cells / Killing, in words (Table 5): 1 hour; for Killing, in words (Table 5): 10^−4 M. As to the method: Human Burkitt's B-lymphoma cells (Daudi) were seeded in 96 well plates (0.5 ml per well of 0.5 million cells/ml) and A 77636 hydrochloride was added and diluted 1:00 into the wells at starting concentrations of 10^−1M-10^−4M, so that the final concentration range tested was 10^−3M-10^−6M. […] Then, the number of living cells was evaluated by flow cytometry (the cells were counted by FACsort for a fixed time length of 1 min, in which 100 microliter of each sample was tested).
Human Burkitt's B-lymphoma cells (Daudi) were seeded in 96 well plates (0.5 ml per well of 0.5 million cells/ml) and A 68930 hydrochloride was added and diluted 1:00 into the wells at starting concentrations of 10^−1M-10^−4M, so that the final concentration range tested was 10^−3M-10^−6M. […] Then, the number of living cells was evaluated by flow cytometry (the cells were counted by FACsort for a fixed time length of 1 min, in which 100 microliter of each sample was tested).
[…] Then, the number of living cells was evaluated by flow cytometry (the cells were counted by FACsort for a fixed time length of 1 min, in which 100 microliter of each sample was tested).
as §3, §6

Series [3] has as its system Human cutaneous Sezary T-lymphoma cells (HuT-78). The description is as above. The note with it: 10^−3M-10^−6M, 3 days. How it is done:
Human cutaneous Sezary T-lymphoma cells (HUT-78) were seeded in 96 well plates (0.5 ml per well of 0.5 million cells/ml) and A 77636 hydrochloride was added and diluted 1:00 into the wells at starting concentrations of 10^−1M-10^−4M, so that the final concentration range tested was 10^−3M-10^−6M. Afterwards, the microtiter plates were placed in an incubator (37° C., humidified incubator, 5% CO2) for 3 days. Then, the number of living cells was evaluated by flow cytometry (the cells were counted by FACsort for a fixed time length of 1 min, in which 100 microliter of each sample was tested).
Human cutaneous Sezary T-lymphoma cells (HUT-78) were seeded in 96 well plates (0.5 ml per well of 0.5 million cells/ml) and A 68930 hydrochloride was added and diluted 1:00 into the wells at starting concentrations of 10^−1M-10^−4M, so that the final concentration range tested was 10^−3M-10^−6M. Afterwards, the microtiter plates were placed in an incubator (37° C., humidified incubator, 5% CO2) for 3 days. Then, the number of living cells was evaluated by flow cytometry (the cells were counted by FACsort for a fixed time length of 1 min, in which 100 microliter of each sample was tested).
Human cutaneous Sezary T-lymphoma cells (HUT-78) were seeded in 96 well plates (0.5 ml per well of 0.5 million cells/ml) and SKF 38393 hydrobromide was added and diluted 1:00 into the wells at starting concentrations of 10^−1M-10^−4M, so that the final concentration range tested was 10^−3M-10^−6M. Afterwards, the microtiter plates were placed in an incubator (37° C., humidified incubator, 5% CO2) for 3 days. Then, the number of living cells was evaluated by flow cytometry (the cells were counted by FACsort for a fixed time length of 1 min, in which 100 microliter of each sample was tested).
Cell viability was tested afterwards. […]
as §5

Series [4] deals with Human Burkitt's B-cell lymphoma (Raji) cells. Described as above. The settings on record: 10^−3M-10^−6M, 3 days. As to the method: (§7) Afterwards, the microtiter plates were placed in an incubator (37° C., humidified incubator, 5% CO2) for 3 days. Then, the number of living cells was evaluated by flow cytometry (the cells were counted by FACsort for a fixed time length of 1 min, in which 100 microliter of each sample was tested).
as §3

For series [5], the system named is resting normal human T-cells. The series is described as above. The settings on record: 10^−3M-10^−6M, 3 days. As to the method: as §7
FIGS. 31A and B are graphs showing that A 77636 hydrochloride kills much more TCR-activated (FIG. 31B) than resting normal (FIG. 31A) human T-cells. […] The cells were then transferred to the incubator for 72 hr incubation. At the end of the 72 hr incubation, the number of living cells in each well was evaluated by flow cytometry (the cells were counted by FACsort for a fixed time length of 1 min, in which 100 microliter of each sample was tested).
as §3

In series [6] the test system is Human T-cell leukemia (Jurkat) cells. Described as above. The settings on record: 10^−3M-10^−6M, 3 days. How it is done:
Afterwards, the microtiter plates were placed in an incubator (37° C., humidified incubator, 5% CO2) for 3 days. Then, the number of living cells was evaluated by flow cytometry (the cells were counted by FACsort for a fixed time length of 1 min, in which 100 microliter of each sample was tested). Of note, A 77636 hydrochloride is an orally-active D1R agonist, according to the manufacturer (Tocris).
as §7
as §2, with “The” for “Human chronic myelogenous leukemia cells (CML) (K-562) were seeded in 96 well plates (0.5 ml per well of 0.5 million cells/ml) and A 77636 hydrochloride was added and diluted 1:00 into the wells, at a fixed starting concentration of 10^−2M, so that the final concentration tested was 10^−4M. The”, “min);” for “min),”
as §3, §4, §5

Series [7] has as its system Human Sezary T-Cell Lymphoma (HuT 78) Cells. Put plainly: Cell number, necrosis and apoptosis by Annexin V/PI flow cytometry. The note with it: 1 × 10^−4M, exposed for 1 hr; for % Necrotic Cells: Annexin V+ PI+; for % Apoptotic Cells: Annexin V+ PI−. As to the method:
(§8) Measurement of cell death by flow cytometry and detection of phosphatidyl serine was performed using the IQ Products kit (R&D systems), according to the manufacturers instructions.
(§9) In detail: The Phosphatidyl Serine Detection kit provides a rapid and reliable method for the detection of apoptosis by flow cytometry. This method enables detection at the single-cell level, and also allows the distinction between apoptosis and necrosis.
(§10) During the early stages of apoptosis, phosphatidyl serine (PS) becomes exposed on the outside of the cell membrane. This early stage of apoptosis can be specifically detected by PS binding proteins (Annexin V).
(§11) During the early stages of apoptosis, the cell membrane is intact and the cells exclude propidium iodide (PI). Later, during the apoptosis process, the membrane becomes porous and PI becomes associated with DNA. The uptake of PI is an indication of necrosis.
as §6
(§12) Cancer death induced by selective D1R agonists occurs via necrosis. To study the mechanism by which the cancer cells die, due to their incubation with DR1 agonists, the phosphatidyl serine detection kit was used. This kit provides a rapid and reliable method for the detection of apoptosis by flow cytometry, enables detection at the single-cell level, and also allows the distinction between apoptosis and necrosis.
(§13) During the early stages of apoptosis, phosphatidyl serine (PS) becomes exposed on the outside of the cell membrane. This early stage of apoptosis can be specifically detected by PS binding proteins (Annexin V). During the early stages of apoptosis, the cell membrane is intact and the cells exclude propidium iodide (PI). Later, during the apoptosis process, the membrane becomes porous and PI becomes associated with DNA. The uptake of PI is an indication of necrosis. Thus, Annexin V^+ PI^− are considered cells that are undergoing apoptosis, while Annexin V^+ PI^+ are considered cells that are undergoing necrosis. Live cells are Annexin V^− PI^−.

For series [8], the system named is Human T-Cell Leukemia (Jurat) Cells. The description is as above. The settings on record: 1 × 10^−4M, exposed for 1 hr; for % Necrotic Cells: Annexin V+ PI+; for % Apoptotic Cells: Annexin V+ PI−. How it is done: as §8, §9, §10, §11, §6, §12, §13

Molecules are shown by their SMILES.

Take `Br.Oc1cc2c(cc1O)C(c1ccccc1)CNCC2` (racemic) [SKF 38393 hydrobromide, (±)-1-phenyl-2,3,4,5-tetrahydro-(1H)-3-benzazepine-7,8-diol hydrobromide]: the “Cell death by number of living cells (FIGS. 22-24), in words” value in series [1] (10^−3M-10^−6M, 3 days) was “induces marked cell death”. The “Cell death by number of living cells (FIGS. 16-18), in words” value in series [2] (10^−3M-10^−6M, 3 days) is “induces marked cell death”. Moreover, the “Cell death by number of living cells (FIGS. 13-15), in words” value in series [3] was “induces marked cell death”. The “Cell death by number of living cells (FIGS. 19-21), in words” value in series [4] is on record as “induces marked cell death”. Further, the “Killing effect by number of living cells (FIGS. 25-27), in words” value in series [5] is recorded as “significantly milder killing effect”. Moreover, in series [6], the “Cell death by number of living cells (FIGS. 10-12), in words” value is reported as “induces marked cell death”.

`CCCN(CCC)C1CCc2ccc(O)cc2C1` (stereo not drawn) [D3R Agonist, 7-Hydroxy-DPAT]: in series [7], the “No. of Cells” value is 18,975, the “% Necrotic Cells” value stood at 21.40% and the “% Apoptotic Cells” value is listed as 14.67%. Besides, in series [8], the “No. of Cells” value is 9,300, the “% Necrotic Cells” value is 10.27% and the “% Apoptotic Cells” value came to 1.68%. Moreover, in series [1], the “No. of Cells” value is listed as 21,960 and the “Killing, in words (Table 6)” value was “no such effect”. Moreover, in series [2], the “No. of Cells” value was 18,330 and the “Killing, in words (Table 5)” value is “no such effect”.

Consider `NCCc1ccc(O)c(O)c1` [Dopamine], for which, in series [7], the “No. of Cells” value is recorded as 16,395, the “% Necrotic Cells” value came out at 39.80% and the “% Apoptotic Cells” value is recorded as 19.07%. Also, in series [8], the “No. of Cells” value was 4,545, the “% Necrotic Cells” value is given as 42.84% and the “% Apoptotic Cells” value was 7.06%. For the same compound, in series [1], the “No. of Cells” value was 24,480 and the “Killing, in words (Table 6)” value is reported as “not the CML”. Moreover, in series [2], the “No. of Cells” value is listed as 5,325 and the “Killing, in words (Table 5)” value is reported as “killed the B-lymphoma cells”.

For the compound `CCCN1CCC[C@@H]2Cc3n[nH]cc3C[C@H]21` [D2R Agonist, Quinpirole], in series [7], the “No. of Cells” value was 23,880, the “% Necrotic Cells” value stood at 21.97% and the “% Apoptotic Cells” value amounted to 12.00%. In addition, in series [8], the “No. of Cells” value was 7,395, the “% Necrotic Cells” value was 7.65% and the “% Apoptotic Cells” value is 1.38%. Also, in series [1], the “No. of Cells” value is listed as 27,360 and the “Killing, in words (Table 6)” value is “no such effect”. For the same compound, in series [2], the “No. of Cells” value is 20,805 and the “Killing, in words (Table 5)” value was “no such effect”.
